Data on ten compounds can be found in PubChem BioAssay (NCI).

Among the test systems are PC-3 prostate; K-562 leukemia; BT-549 breast; CCRF-CEM leukemia; HOP-92 NSCLC; LOX IMVI melanoma; CAKI-1 renal; SNB-19 CNS; A549 NSCLC; A498 renal.
Holding throughout (experiment): NCI-60 cell line screen, 48 h

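Method: 48-hour compound exposure of cells in 96-well plates, five concentrations, linear interpolation of endpoints. The concentration for 50% growth inhibition is given as GI50. TGI marks complete inhibition of growth.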

As to `COC(=O)C1=C(C)NC(=S)NC1c1ccc(N(CCCl)CCCl)cc1Cl` (configuration not stated), the TGI with PC-3 prostate was over 82.8 µM; in the test on K-562 leukemia, over 57.5 µM; with BT-549 breast it was over 100 µM; in the test on CCRF-CEM leukemia, over 32.7 µM; in the test on HOP-92 NSCLC, over 100 µM; in the test with LOX IMVI melanoma, over 100 µM. The TGI is 14.6 µM in the test with CAKI-1 renal, over 100 µM in the test with SNB-19 CNS, over 58.7 µM with A549 NSCLC and over 100 µM in the test on A498 renal. Besides, the GI50 in the test on BT-549 breast is 73.5 µM; with A498 renal, 46.9 µM.
Take `CC1=C(CCC(C)CO)O[C@H]2C[C@H]3[C@@H]4CC[C@H]5C[C@@H](O)CC[C@]5(C)[C@H]4CC(=O)[C@]3(C)[C@@H]12` (some centres not stated): the TGI in the test on PC-3 prostate stood at 21.2 µM; in the test on K-562 leukemia it was 40.7 µM; in the test with BT-549 breast, 58.4 µM; in the test on CCRF-CEM leukemia it was 23.8 µM; in the test on HOP-92 NSCLC it was 67.3 µM; with LOX IMVI melanoma it was 33.8 µM. The TGI worked out at 86.3 µM in the test on CAKI-1 renal, 55.5 µM in the test on SNB-19 CNS, 55.7 µM in the test on A549 NSCLC and 44 µM in the test with A498 renal.
`CC12CCC(C1)C(C)(C)C2OC(=O)c1ccccc1N` (configuration not stated): the TGI in the test on PC-3 prostate amounted to 27.3 µM; with K-562 leukemia, 32.1 µM; in the test with BT-549 breast, 34.3 µM; with CCRF-CEM leukemia, 3.96 µM; in the test with HOP-92 NSCLC it was 24.4 µM; in the test on LOX IMVI melanoma it was 33.8 µM. The TGI was determined as 29.9 µM in the test on CAKI-1 renal, 31.9 µM with SNB-19 CNS, 29.2 µM in the test on A549 NSCLC and 28.6 µM in the test with A498 renal.
Turning to `CN1CCN(Cc2ccc(NC(=O)c3cncc(C#Cc4ccc(N)nc4)c3)cc2C(F)(F)F)CC1`, the GI50 in the test with PC-3 prostate was 1.58 µM; in the test on K-562 leukemia, 0.005 µM; in the test with BT-549 breast, 1.62 µM; in the test on CCRF-CEM leukemia, 1.46 µM; in the test with HOP-92 NSCLC it was 0.408 µM; with LOX IMVI melanoma, 0.556 µM. The GI50 with CAKI-1 renal was 0.312 µM; with SNB-19 CNS it was 2.6 µM; with A549 NSCLC, 1.38 µM; with A498 renal, 0.567 µM. The TGI is 8.3 µM in the test on PC-3 prostate; 5.54 µM in the test on K-562 leukemia; 6.43 µM with BT-549 breast; 11.8 µM in the test with CCRF-CEM leukemia; 1.76 µM in the test on HOP-92 NSCLC; 1.28 µM in the test on LOX IMVI melanoma. Besides, the TGI in the test with CAKI-1 renal was 2.09 µM; in the test on SNB-19 CNS it was 9.44 µM; in the test on A549 NSCLC, 7.24 µM; in the test with A498 renal it was 1.93 µM.
On to `NC1CC(=O)c2c(-c3cccs3)sc(-c3cccs3)c21` (configuration not stated), for which the GI50 in the test with PC-3 prostate is 30.8 µM; with K-562 leukemia, 25 µM; in the test with BT-549 breast it was 19.5 µM; in the test on CCRF-CEM leukemia, 3.89 µM; in the test with HOP-92 NSCLC, 16.6 µM; in the test on LOX IMVI melanoma it was 12.7 µM. Besides, the GI50 was 33.4 µM with CAKI-1 renal, 36 µM in the test on SNB-19 CNS, 53.2 µM in the test on A549 NSCLC and 77.8 µM in the test on A498 renal. Moreover, the TGI in the test on PC-3 prostate is over 100 µM; in the test with K-562 leukemia, over 100 µM; in the test with BT-549 breast, 63.8 µM; with CCRF-CEM leukemia it was over 100 µM; with HOP-92 NSCLC it was 66.2 µM; in the test on LOX IMVI melanoma, 29 µM. In addition, the TGI in the test with CAKI-1 renal, with SNB-19 CNS, with A549 NSCLC and in the test with A498 renal was over 100 µM throughout.
With `Cc1ccc2ccccc2c1CSc1nc(N)nc2c1ncn2CC(C)C`, the TGI was over 89.9 µM with PC-3 prostate; over 100 µM with K-562 leukemia; over 100 µM with BT-549 breast; over 95.5 µM with CCRF-CEM leukemia; over 100 µM in the test on HOP-92 NSCLC; over 100 µM in the test on LOX IMVI melanoma. Also, the TGI with CAKI-1 renal is over 48.9 µM; with SNB-19 CNS it was over 100 µM; with A549 NSCLC, over 100 µM; in the test on A498 renal, 99.6 µM.
For `Cc1ccc(NC(=O)COc2ccc(Cl)cc2)cc1Cl`, the TGI is over 100 µM with PC-3 prostate; over 100 µM in the test with K-562 leukemia; over 100 µM in the test with BT-549 breast; 85.9 µM in the test with CCRF-CEM leukemia; over 100 µM in the test with HOP-92 NSCLC; over 100 µM in the test on LOX IMVI melanoma. Further, the TGI was 81.9 µM in the test on CAKI-1 renal, over 100 µM in the test with SNB-19 CNS, over 100 µM in the test on A549 NSCLC and over 100 µM in the test on A498 renal.
For the compound `C=C1C(=O)O[C@@H]2/C=C(/C)[C@@H](OC(C)=O)C[C@@H](O)/C(C)=C\[C@@H](OC(=O)[C@]3(C)O[C@@H]3C)[C@@H]12`, the TGI in the test on PC-3 prostate is 32.3 µM; in the test with K-562 leukemia, 17.5 µM; in the test on BT-549 breast, 18.8 µM; with CCRF-CEM leukemia, 11.7 µM; in the test on HOP-92 NSCLC it was 26.7 µM; in the test with LOX IMVI melanoma it was 20.4 µM. In addition, the TGI is 11.1 µM in the test on CAKI-1 renal, over 100 µM in the test on SNB-19 CNS, over 100 µM in the test with A549 NSCLC and 32.3 µM in the test with A498 renal.
For the compound `O=C(Nc1cccc([N+](=O)[O-])c1)c1cccc(C(=O)Nc2cccc([N+](=O)[O-])c2)c1`, the GI50 with PC-3 prostate is over 100 µM; in the test with K-562 leukemia, over 100 µM; in the test with BT-549 breast it was 9.05 µM; in the test on CCRF-CEM leukemia, over 100 µM; in the test on HOP-92 NSCLC it was 8.85 µM; with LOX IMVI melanoma, over 100 µM. In addition, the GI50 was over 100 µM with CAKI-1 renal, 28.6 µM with SNB-19 CNS, over 100 µM in the test with A549 NSCLC and 20.2 µM in the test on A498 renal. Further, the TGI in the test on PC-3 prostate was over 100 µM; in the test on K-562 leukemia, over 100 µM; in the test with BT-549 breast, over 100 µM; with CCRF-CEM leukemia, over 100 µM; in the test on HOP-92 NSCLC, 60.7 µM; in the test with LOX IMVI melanoma, over 100 µM. For the same compound, the TGI in the test with CAKI-1 renal is over 100 µM; in the test on SNB-19 CNS, over 100 µM; with A549 NSCLC it was over 100 µM; with A498 renal, 79.5 µM.
For `N#C/C(=C\c1ccc[nH]1)c1cc(-c2ccc(Cl)cc2)nn1-c1ccccc1`, the GI50 is 3.12 µM with PC-3 prostate; 3.24 µM in the test on K-562 leukemia; 4.72 µM with BT-549 breast; 3.59 µM in the test with CCRF-CEM leukemia; 2.54 µM with HOP-92 NSCLC; 4.9 µM in the test with LOX IMVI melanoma. In addition, the GI50 in the test on CAKI-1 renal is 3.16 µM; with SNB-19 CNS, 9.35 µM; in the test on A549 NSCLC it was 6.92 µM; in the test with A498 renal it was 2.62 µM. Also, the TGI in the test with PC-3 prostate worked out at 23.1 µM; with K-562 leukemia, 10.9 µM; with BT-549 breast, 15.7 µM; in the test on CCRF-CEM leukemia, 22 µM; in the test with HOP-92 NSCLC it was 10.2 µM; with LOX IMVI melanoma it was 16.8 µM. The TGI in the test with CAKI-1 renal is over 100 µM; with SNB-19 CNS, over 56.9 µM; in the test with A549 NSCLC, over 64.7 µM; with A498 renal it was 12.6 µM.
